Assay results taken from patent US12383573B2, “Use of luteolin-7-O-glucoside or luteolin-7-O-glucuronide in preparation of medicine for eye injuries” (BEIJING CHENGYI INVESTMENT CO., LTD., priority 2019, dated 2025).

What was measured:
Format in all cases: cell-based
[1] = test system: human retinal pigment epithelial cells ARPE-19; assay: Cytotoxicity on human retinal pigment epithelial cells ARPE-19 (MTT); conditions: ARPE-19, 12.5˜100 μmol/L, 24 h
Experimental: ARPE-19 cells (purchased from Guangzhou Jinnuo Biotechnology Co., Ltd., China) were seeded into RPMI-1640 low-glucose cell culture medium containing 10% fetal bovine serum and 1% dual-antibiotics (penicillin-streptomycin) (culture medium containing 2 g/L D-glucose, 0.3 g/L L-glutamine and 2 g/L sodium bicarbonate), and the medium was replaced once every 3 days for future use.
Cells at exponential growth phase were used, and 100 μl of complete medium was added to each well to reach a concentration of 1×10^4 cells/mL. Then the cells were cultured in a humidified atmosphere at 37° C. and 5% CO2 for 24 h. After the cells fully adhered, luteolin-7-O-glucoside and luteolin-7-O-glucuronide with final concentrations of 12.5 μmol/L, 25 μmol/L, 50 μmol/L, and 100 μmol/L were added respectively, and cultured for 24 h.
The cell viability was determined by the 3-(4,5-dimethyl-2-thiazolyl)-2,5-diphenyl-2-H-tetrazolium […] (MTT) method: 20 μl of 5 mg/ml MTT was added to each well, and the cells were cultured in a CO2 incubator for 4 h, with all operations shielded from light. […] The absorbance of ARPE-19 cells was measured with a microplate reader at 490 nm, and the cell survival rate was calculated as follows: cell survival rate=(OD value of experimental group−OD value of blank group)/(OD of control group−OD of blank group)×100%.

[2] = test system: human retinal pigment epithelial cells ARPE-19; assay: Blue light-induced damage to A2E-pretreated ARPE-19 cells, cell survival (MTT); conditions: 12.5˜50 μmol/L
Experimental: ARPE-19 cells were seeded into RPMI-1640 low-glucose cell culture medium containing 10% fetal bovine serum and 1% dual-antibiotics (penicillin-streptomycin), and the medium was replaced once every 3 days for future use.
Cells at exponential growth phase were used, and cells at 500 μl/well were seeded to a 24-well cell culture plate at a concentration of 5×10^4 cells/mL, and cultured in a humidified atmosphere at 37° C. and 5% CO2. After the cells fully adhered, the medium was replaced with the DMEM culture medium containing 25 μmol/L N-retinylidene-N-retinyl ethanolamine (A2E) for 2 hours of culture. Then, the supernatant was discarded, and the cells were washed 3 times with PBS, added with the luteolin-7-O-glucoside and luteolin-7-O-glucuronide with final concentrations of 12.5 μmol/L, 25 μmol/L, and […] respectively for 6 h of continuous culture, and then placed in a blue light device (50W LED blue light board with a blue light intensity of 3230˜3540 Lux) for 4 h of irradiation. After the light irradiation, the cells were placed in a 37° C. and 5% CO2 incubator again and continued to incubate for 24 h. […] The OD values were measured with a multi-well microplate reader at 490 nm, and the cell survival rate was calculated as follows: cell survival rate=(OD value of experimental group−OD value of blank group)/(OD of control group−OD of blank group)×100%. […]

[3] = test system: human retinal pigment epithelial cells ARPE-19; assay: Intracellular ROS content by DHE staining in blue light-damaged ARPE-19 cells; conditions: A2E + blue light, vs model group
Experimental: A single layer of ARPE-19 cells were seeded and cultured in a 24-well plate with a cell concentration of 5×10^4 cells/well. After treatment as described in Example 2, the cells were washed twice with PBS and reactive oxygen species (ROS) fluorescent probe dihydroethidium (DHE) staining solution with a concentration of 20 μmol/L was added, and the cells were incubated at 37° C. for 20 min. Then, the cells were washed twice with PBS to fully remove the DHE probe that had not entered the cell, and then imaging was performed under an inverted microscope with an excitation wavelength of 540 nm and an emission wavelength of 590 nm.

[4] = test system: human retinal pigment epithelial cells ARPE-19; assay: Hoechst 33342 nuclear staining (apoptosis) in blue light-damaged ARPE-19 cells; conditions: A2E + blue light, vs model group
Experimental: The cells were seeded in a 24-well plate (5×10^4 cells/well), and after the treatment as previously described, the fix solution was added and incubated for 30 min. Then the cells were washed three times with PBS, added with live cell staining solution (Hoechst 33342) with a concentration of 20 μg/mL, and incubated for 15 min at room temperature shielded from light. After the cells were washed with PBS, imaging was performed under an inverted fluorescence microscope with an excitation wavelength of 365 nm and an emission wavelength of 460 nm.

Row | Structure (SMILES) | cytotoxicity on ARPE-19 (in words) [1] | concentration dependence of the cell survival rate (in words) [2] | intracellular fluorescence intensity (ROS content, DHE staining) [3] | cell status / nuclear condensation (Hoechst 33342, apoptosis) [4]
1 | O=c1cc(-c2ccc(O)c(O)c2)oc2cc(O[C@@H]3O[C@H](CO)[C@@H](O)[C@H](O)[C@H]3O)cc(O)c12 [luteolin-7-O-glucoside] | no cytotoxicity | concentration-dependent | decreased significantly as the dose increased | the cell status had obviously improved
2 | O=C(O)[C@H]1O[C@@H](Oc2cc(O)c3c(=O)cc(-c4ccc(O)c(O)c4)oc3c2)[C@H](O)[C@@H](O)[C@@H]1O [luteolin-7-O-glucuronide] | no cytotoxicity | concentration-dependent | – | –
